From patent US20110288142A1, “CRYSTALLINE N--5-chloro-4-(4-chloro-1-methyl-1H-pyrazol-5-yl)-2-thiophenecarboxamide hydrochloride” (priority 2009, published 2011)

What was measured:
[1] = Solubility in bio-relevant media; format: physicochemical
[2] = Chemical stability of solid form; format: physicochemical; conditions: compared with free acid and other salt forms, including the amorphous hydrochloride form
[3] = Hygroscopicity, moisture sorption on VTI instrument SGA 100; conditions: for level of hygroscopicity / weight increase of the compound (moisture): 25 °C; for hygroscopicity of the solid form (general statement): hydrochloride
Text: There were 24 Relative Humidity steps used. The Relative Humidity at each step is as follows.

SMILES	solubility in bio-relevant media [1]	chemical stability [2]	level of hygroscopicity ([3]; crystalline form, no drying, 24 relative humidity steps)	weight increase of the compound (moisture) ([3]; crystalline form, no drying, 24 relative humidity steps, 5 to 90)	hygroscopicity of the solid form (general statement) [3]	level of hygroscopicity ([3]; amorphous form, dried at 60 °C, 19 relative humidity steps)	weight increase of the compound (moisture) ([3]; amorphous form, dried at 60 °C, 19 relative humidity steps, 0 to 90)
Cl.Cn1ncc(Cl)c1-c1cc(C(=O)N[C@H](CN)Cc2cccc(F)c2)sc1Cl [Compound A]	good solubility	improved chemical stability	low level of hygroscopicity	less than 1 % w/w	non-hygroscopic	–	–
Cl.Cn1ncc(Cl)c1-c1cc(C(=O)N[C@H](CN)Cc2cccc(F)c2)sc1Cl [Example 3]	–	–	–	–	hygroscopic	high level of hygroscopicity	more than 18 % w/w
